Values joined by “and” are separate entries in the source; they are usually repeats but may differ in a detail not shown here. Identical values can stand only once. “Also recorded” adds a separate entry of the source. Like-named read-outs stand apart in the source and are kept apart here.
Tests used:
[1] = test system: three primary patient-derived GBM cell lines harboring EGFR amplification and/or mutations; test: Cell viability, three patient-derived GBM cell lines (summary); format: cell-based; settings: Homo sapiens; neurosphere culture; read-out: IC50 of cell viability, range over three patient cell lines
Procedure: (§1) Cells were seeded in 96-well plates at a density of 1,000 cells per well and treated with two-fold serial dilutions of compounds with a starting concentration of 20 μM. Cell viability was assessed after three days of treatment by CellTiter-Glo (Promega). Curve fitting analysis and IC50 value determination were performed using GraphPad Prism 8.

[2] = Brain and plasma exposure after 5 hour intravenous infusion; format: in vivo, Sprague Dawley rats; settings: for Kp at 5 h / concentration at 5 h / concentration at 0.083 h / concentration at 1 h / concentration at 2 h / concentration at 3 h: 3 mg/kg
Procedure: A single IV infustion for 5 hours was administered to each animal, which were then twice observed clinically (30 minutes to 1 hour post-posing and at the end of the study (TTerminal). Blood samples were collected at 5 time points from each animal over the 5 hour infusion period (5 minutes, 1 hour, 2, hours, 3 hours and TTerminal) and processed to plasma. Brains were collected at Tterminal (blotted, weighed, and snap frozen) and brain exposure was compared. […]

U251-EGFRvIII cells = test: Viability/proliferation of U251-EGFRvIII cells; format: cell-based, human
Procedure: as §1
In parallel, the conventional human GBM U251 cell line was used as a surrogate model for both in vitro and in vivo studies. U251 cells were engineered to stably express EGFRvIII (U251-EGFRvIII) via retroviral-mediated gene transfer.

[3] = In vivo metabolite identification; parameters: species or system rat, dog and monkey
Excerpt: In in vivo studies in rat, dog and monkey, 35 metabolites were identified. The major circulating compound in all species was parent compound; parent was also a major component in rat feces. Compound 2, demethylated metabolite, was a major active metabolite in all species in plasma and in rat feces. M34, glutathione conjugation and hydrolysis and acetylation metabolite, was a major metabolite in rat urine. Compound 1 was extensively metabolized during excretion with 31 metabolites in rat urine and 32 metabolites in rat feces.

[4] = Comparative plasma protein binding; format: in vitro ADME; settings: human, monkey, dog, rat, mouse, across species, independent of concentration, read-out: plasma protein bound
Excerpt: Compound 1 was highly protein bound (95.6 to 98.7%) to plasma protein across species. Binding was independent of concentration.

[5] = test system: orthotopic U251-EGFRvIII tumors; test: Orthotopic U251-EGFRvIII xenograft in mice; format: in vivo, mouse
Procedure: Gefitinib and erlotinib were purchased from Selleck Chemicals. Lapatinib was purchased from MedChemexpress. […] Compound 1 was synthesized by Pharmaron (Wang et al., bioRxiv, 2020.2003.2009.984500). For in vitro studies, compounds were dissolved in DMSO. For in vivo studies, Compound 1 was dissolved in 10% NMP/90% PEG300 and administered by oral gavage at 37.5 mg/kg or 75 mg/kg daily.
Cells (100,000 cells resuspended in 1 μl PBS) were intracranially injected into the right striatum (0 mm anterior, 2 mm lateral, and 2.5 mm ventral to bregma) of 8-10 week-old ICR-SCID mice. Animals were monitored daily for development of neurological defects.
Cells were transduced with lentiviral luciferase (HIV-Luc-zsGreen, addgene #39196). Bioluminescence signals from luciferase-expressing cells in live mice were recorded 10 minutes after intraperitoneal injection of D-luciferin (80 mg/kg) (Gold Biotechnology) with IVIS Lumina III Imaging System (PerkinElmer). The signals were analyzed with Living Image Software (PerkinElmer).
To evaluate the in vivo activity of Compound 1 in GBM with mutant EGFR, U251-EGFRvIII GBM cells expressing luciferase was generated to facilitate monitoring drug response in vivo by bioluminescence-imaging analysis. […]

BT179 cells = test: Cell viability, patient-derived GBM line BT179; settings: Homo sapiens, 72 h
Procedure: Primary human glioblastoma lines BT112, BT179 and BT333 were maintained in NeuroCult proliferation medium (human) (StemCell Technologies) with 20 ng/ml EGF, 10 ng/ml FGF and 0.0002% Heparin.

[6] = test system: phosphorylated EGFR and cell viability; test: In vitro GBM studies, summary (phosphorylated EGFR and cell viability); format: cell-based; settings: GBM models; read-out: IC50 range in in vitro studies targeting decreases in phosphorylated EGFR and cell viability
Excerpt: Compound 1, a third-generation tyrosine kinase inhibitor, is under development for GBM (Wang 2020) Compound 1 binds covalently to its target.

CYP3A4 = test: CYP 1A2, 2B6 and 3A4 induction, human hepatocytes; format: in vitro ADME
Excerpt: Metabolism, inhibition and induction were not observed with other CYPs. Potential DDI interactions exist with drugs that are inhibitors of CYP3A4-T or those metabolized by CYP3A4/3A5; these DDI risks will be better defined once there are human pharmacokinetics (PK) data.

[7] = 3 mg/kg IV infusion over 5 h, 5 h, individual animal, Compound 2 as metabolite in Compound 1-dosed rats
[8] = Sprague Dawley, rat, brain, other: continuous intravenous infusion and oral dosing, rat, estimated steady state by continuous intravenous infusion and oral dosing, read-out: whole brain exposure relative to plasma

C=CC(=O)Nc1cc(Nc2nccc(-n3ccc4cccnc43)n2)c(OC)cc1N(C)CCN(C)C [Compound 1, N-(5-((4-(1H-pyrrolo[2,3-b]pyridin-1-yl)pyrimidin-2-yl)amino)-2-((2-(dimethylamino)ethyl)(methyl)amino)-4-methoxyphenyl)acrylamide]
IC50 [1]: 890 to 3280 nM | Plasma Concentration ([2]; 3 mg/kg IV infusion over 5 h, 0.083 h, individual animal, Compound 2 as metabolite in Compound 1-dosed rats): 14.2 ng/mL and 13.5 ng/mL and 12.8 ng/mL and 13.1 ng/mL and 11.3 ng/mL and 14.3 ng/mL | Plasma Concentration ([2]; 3 mg/kg IV infusion over 5 h, 1 h, individual animal, Compound 2 as metabolite in Compound 1-dosed rats): 63.5 ng/mL and 54.8 ng/mL and 59.6 ng/mL and 44.2 ng/mL and 51.1 ng/mL and 63.0 ng/mL | Plasma Concentration ([2]; 3 mg/kg IV infusion over 5 h, 2 h, individual animal, Compound 2 as metabolite in Compound 1-dosed rats): 93.4 ng/mL and 84.2 ng/mL and 81.6 ng/mL and 70.7 ng/mL and 71.9 ng/mL and 70.1 ng/mL | Plasma Concentration ([2]; 3 mg/kg IV infusion over 5 h, 3 h, individual animal, Compound 2 as metabolite in Compound 1-dosed rats): 95.5 ng/mL and 93.7 ng/mL and 106 ng/mL and 89.5 ng/mL and 94.7 ng/mL and 120 ng/mL | Brain Tissue Concentration [2, 7]: 2380 ng/g and 2400 ng/g and 2020 ng/g and 2000 ng/g and 1980 ng/g and 2640 ng/g | Brain/Plasma (ratios) [2, 7]: 18.5 and 20.5 and 18.2 | Plasma Concentration [2, 7]: 107 ng/mL and 120 ng/mL and 109 ng/mL and 97.4 ng/mL and 119 ng/mL | Kp at 5 h [2, 8]: > 20 | Kp [2, 8]: 20 | concentration at 5 h ([2]; male, Sprague Dawley, rat, brain, intravenous, 3 mg/kg IV infusion over 5 h, 5 h, individual animal, Compound 2 as metabolite in Compound 1-dosed rats, read-out: Brain Tissue Concentration): 2640 ng/g | concentration at 5 h ([2]; male, Sprague Dawley, rat, brain, intravenous, 3 mg/kg IV infusion over 5 h, 5 h, mean n=6, Compound 2 as metabolite, read-out: Brain Tissue Concentration): 2240 ng/g | Kp at 5 h ([2]; male, Sprague Dawley, rat, brain, intravenous, rats with continuous infusion, read-out: brain/plasma ratio): ~20 | Kp at 5 h ([2]; male, Sprague Dawley, rat, brain, iv, 3 mg/kg IV infusion over 5 h, 5 h, individual animal, Compound 2 as metabolite in Compound 1-dosed rats, read-out: Brain/Plasma (ratios)): 22.2 | Kp at 5 h ([2]; male, Sprague Dawley, rat, brain, iv, 3 mg/kg IV infusion over 5 h, 5 h, mean n=6, Compound 2 as metabolite, read-out: Brain/Plasma (ratios)): 20.3 | concentration at 0.083 h ([2]; male, Sprague Dawley, rat, plasma, intravenous, 3 mg/kg IV infusion over 5 h, 0.083 h, individual animal, Compound 2 as metabolite in Compound 1-dosed rats): 14.3 ng/mL | concentration at 0.083 h ([2]; male, Sprague Dawley, rat, plasma, intravenous, 3 mg/kg IV infusion over 5 h, 0.083 h, mean n=6, Compound 2 as metabolite): 13.2 ng/mL | concentration at 1 h ([2]; male, Sprague Dawley, rat, plasma, intravenous, 3 mg/kg IV infusion over 5 h, 1 h, individual animal, Compound 2 as metabolite in Compound 1-dosed rats): 63 ng/mL | concentration at 1 h ([2]; male, Sprague Dawley, rat, plasma, intravenous, 3 mg/kg IV infusion over 5 h, 1 h, mean n=6, Compound 2 as metabolite): 56 ng/mL | concentration at 2 h ([2]; male, Sprague Dawley, rat, plasma, intravenous, 3 mg/kg IV infusion over 5 h, 2 h, individual animal, Compound 2 as metabolite in Compound 1-dosed rats): 70.1 ng/mL | concentration at 2 h ([2]; male, Sprague Dawley, rat, plasma, intravenous, 3 mg/kg IV infusion over 5 h, 2 h, mean n=6, Compound 2 as metabolite): 78.7 ng/mL | concentration at 3 h ([2]; male, Sprague Dawley, rat, plasma, intravenous, 3 mg/kg IV infusion over 5 h, 3 h, individual animal, Compound 2 as metabolite in Compound 1-dosed rats): 120 ng/mL | concentration at 3 h ([2]; male, Sprague Dawley, rat, plasma, intravenous, 3 mg/kg IV infusion over 5 h, 3 h, mean n=6, Compound 2 as metabolite): 99.9 ng/mL | concentration at 5 h ([2]; male, Sprague Dawley, rat, plasma, intravenous, 3 mg/kg IV infusion over 5 h, 5 h, individual animal, Compound 2 as metabolite in Compound 1-dosed rats, read-out: Plasma Concentration): 119 ng/mL | concentration at 5 h ([2]; male, Sprague Dawley, rat, plasma, intravenous, 3 mg/kg IV infusion over 5 h, 5 h, mean n=6, Compound 2 as metabolite, read-out: Plasma Concentration): 110 ng/mL | Brain Penetration (% of B/P ratio in preclinical model) ([2]; own data, infusion in rats): 2000% (infusion) | IC50 (U251-EGFRvIII cells; Homo sapiens, values of the text and Table 9, read-out: IC50, viability of U251-EGFRvIII cells): 1520 nM | IC50 (U251-EGFRvIII cells; Homo sapiens, Table 2, read-out: IC50 on U251-EGFRvIII cell proliferation): 1480 nM | cell survival, fold less than that of erlotinib (U251-EGFRvIII cells; U251-EGFRvIII cells): 9 fold | cell survival, fold less than that of gefitinib (U251-EGFRvIII cells; U251-EGFRvIII cells): 13 fold | IC50 (U251-EGFRvIII cells; values of the text and Table 9, read-out: IC50, viability of U251-EGFRvIII cells): 1500 nM | number of metabolites in rat feces ([3]; in vivo): 32 | number of metabolites in rat urine ([3]; in vivo): 31 | number of metabolites identified in vivo ([3]; rat, dog and monkey): 35 | fraction unbound [4]: 0.013 to 0.044 | body weight during treatment ([5]; 37.5 and 75 mg/kg PO QD): stable body weight; also recorded: no significant body weight loss | luminescence signals of tumors ([5]; 37.5 and 75 mg/kg, dose-dependent): reduced the luminescence signals | IC50 (BT179 cells): 893 nM | IC50 [6]: 170 to 3280 nM | CYP induction based on enzyme activity (CYP3A4): no CYP induction
